Results published in PubChem BioAssay AID330 (DTP/NCI, 2004).
Where “and” joins values, the source holds several entries; their conditions need not be identical. Equal entries are not always repeated. Toxic doses and inconclusive results are not listed.

System: P388 leukemia ip, CD2F1 mice, survival T/C
Test: NCI In Vivo Anticancer Drug Screen. Data for tumor model P388 Leukemia (intraperitoneal) in CD2F1 (CDF1) mice
Conditions: endpoint: median survival time, higher = longer survival
Summary of the method: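 Mice carrying the transplanted tumor received test compound or vehicle. Survival was recorded in each group, and the value is the treated-group measurement divided by that of the vehicle-treated control group.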

[1] = dose: 50.0 mg/kg/injection, schedule: Q01DX005 (ip), vehicle: saline
[2] = dose: 100.0 mg/kg/injection, schedule: Q01DX005 (ip), vehicle: saline
[3] = dose: 200.0 mg/kg/injection, schedule: Q01DX005 (ip), vehicle: saline
[4] = dose: 50.0 mg/kg/injection, schedule: Q01DX005 (ip), vehicle: saline with Tween-80
[5] = dose: 50.0 mg/kg/injection, schedule: Q01DX009 (ip), vehicle: Klucel (hydroxypropylcellulose) (HPC)
[6] = dose: 100.0 mg/kg/injection, schedule: Q01DX009 (ip), vehicle: Klucel (hydroxypropylcellulose) (HPC)
[7] = dose: 60.0 mg/kg/injection, schedule: Q01DX005 (ip), vehicle: saline with Tween-80
[8] = dose: 120.0 mg/kg/injection, schedule: Q01DX005 (ip), vehicle: saline with Tween-80
[9] = dose: 100.0 mg/kg/injection, schedule: Q01DX005 (ip), vehicle: saline with Tween-80
[10] = dose: 200.0 mg/kg/injection, schedule: Q01DX005 (ip), vehicle: saline with Tween-80
[11] = dose: 50.0 mg/kg/injection, schedule: Q01DX005 (ip), vehicle: Klucel (hydroxypropylcellulose) (HPC)
[12] = dose: 240.0 mg/kg/injection, schedule: Q01DX005 (ip), vehicle: saline with Tween-80
[13] = dose: 60.0 mg/kg/injection, schedule: Q01DX005 (ip), vehicle: Klucel (hydroxypropylcellulose) (HPC)
[14] = dose: 120.0 mg/kg/injection, schedule: Q01DX005 (ip), vehicle: Klucel (hydroxypropylcellulose) (HPC)
[15] = dose: 240.0 mg/kg/injection, schedule: Q01DX005 (ip), vehicle: Klucel (hydroxypropylcellulose) (HPC)
[16] = dose: 50.0 mg/kg/injection, schedule: Q01DX009 (ip), vehicle: saline with Tween-80
[17] = dose: 100.0 mg/kg/injection, schedule: Q01DX009 (ip), vehicle: saline with Tween-80

CN(C)CCCOC1=Nc2ccccc2O/C1=C/c1ccccc1
T/C (dose: 12.5 mg/kg/injection, schedule: Q04DX003 (ip), vehicle: saline): 98 % of control | T/C (dose: 25.0 mg/kg/injection, schedule: Q04DX003 (ip), vehicle: saline): 94 % of control | T/C (dose: 50.0 mg/kg/injection, schedule: Q04DX003 (ip), vehicle: saline): 97 % of control | T/C (dose: 100.0 mg/kg/injection, schedule: Q04DX003 (ip), vehicle: saline): 97 % of control

O=C(NC(CCS(=O)(=O)NCCCl)C(=O)OCc1ccccc1)OCc1ccccc1 (configuration not stated)
T/C (dose: 12.5 mg/kg/injection, schedule: Q01DX009 (ip), vehicle: other): 104 % of control | T/C (dose: 25.0 mg/kg/injection, schedule: Q01DX009 (ip), vehicle: other): 90 % of control | T/C (dose: 50.0 mg/kg/injection, schedule: Q01DX009 (ip), vehicle: other): 105 % of control | T/C (dose: 100.0 mg/kg/injection, schedule: Q01DX009 (ip), vehicle: other): 103 % of control | T/C (dose: 200.0 mg/kg/injection, schedule: Q01DX009 (ip), vehicle: other): 91 % of control

CC(C)NC(=O)N1C2C3CCC(C)(OC3(C)C)C21 (configuration not stated)
T/C [1]: 108 % of control | T/C [2]: 101 % of control | T/C [3]: 101 % of control

Oc1c(Cl)cc(Cl)cc1/C=N\NC(=S)Nc1ccccc1
T/C (dose: 100.0 mg/kg/injection, schedule: Q04DX002 (ip), vehicle: Klucel (hydroxypropylcellulose) (HPC)): 97 % of control | T/C (dose: 200.0 mg/kg/injection, schedule: Q04DX002 (ip), vehicle: Klucel (hydroxypropylcellulose) (HPC)): 95 % of control

CC(C)(C)OC(=O)NC(CCCCNC(=O)OCc1ccccc1)C(=O)NC(CCCCNC(=O)OCc1ccccc1)C(=O)NC(CCCCNC(=O)OCc1ccccc1)C(=O)OCc1ccccc1 (configuration not stated)
T/C (dose: 12.5 mg/kg/injection, schedule: Q01DX005 (ip), vehicle: saline with Tween-80): 100 % of control | T/C (dose: 25.0 mg/kg/injection, schedule: Q01DX005 (ip), vehicle: saline with Tween-80): 97 % of control | T/C [4]: 100 % of control

Nc1ncnc2c1nnn2C1OC(CO)C(O)C1O (configuration not stated)
T/C [5]: 157 % of control | T/C [6]: 100 % of control

CC1(COc2ccccc2OCC2(C)CO2)CO1 (configuration not stated)
T/C (dose: 1.88 mg/kg/injection, schedule: Q01DX005 (ip), vehicle: saline with Tween-80): 102 % of control | T/C (dose: 3.75 mg/kg/injection, schedule: Q01DX005 (ip), vehicle: saline with Tween-80): 100 % of control | T/C (dose: 7.5 mg/kg/injection, schedule: Q01DX005 (ip), vehicle: saline with Tween-80): 98 % of control | T/C (dose: 15.0 mg/kg/injection, schedule: Q01DX005 (ip), vehicle: saline with Tween-80): 100 % of control | T/C (dose: 30.0 mg/kg/injection, schedule: Q01DX005 (ip), vehicle: saline with Tween-80): 100 % of control | T/C [7]: 102 % of control | T/C [8]: 107 % of control

CCC/C=C/C1SCC(=O)N1c1nncs1 (configuration not stated)
T/C [4]: 102 % of control | T/C [9]: 103 % of control | T/C [10]: 117 % of control

CC[N](CC)[Ge]([CH2]C)[CH2]C.C[CH2][Ge]([CH2]C)[CH2]C
T/C (dose: 6.25 mg/kg/injection, schedule: Q01DX009 (ip), vehicle: saline): 98 % of control and 109 % of control | T/C (dose: 12.5 mg/kg/injection, schedule: Q01DX009 (ip), vehicle: saline): 98 % of control and 109 % of control | T/C (dose: 25.0 mg/kg/injection, schedule: Q01DX009 (ip), vehicle: saline): 109 % of control and 114 % of control | T/C (dose: 50.0 mg/kg/injection, schedule: Q01DX009 (ip), vehicle: saline): 121 % of control | T/C (dose: 100.0 mg/kg/injection, schedule: Q01DX009 (ip), vehicle: saline): 118 % of control

CCOc1ccc(C2=C(O)/C(=C(\C(=O)Nc3nccs3)c3ccc(OCC)cc3)OC2=O)cc1
T/C (dose: 12.5 mg/kg/injection, schedule: Q01DX005 (ip), vehicle: Klucel (hydroxypropylcellulose) (HPC)): 109 % of control | T/C (dose: 25.0 mg/kg/injection, schedule: Q01DX005 (ip), vehicle: Klucel (hydroxypropylcellulose) (HPC)): 104 % of control | T/C [11]: 100 % of control and 104 % of control

c1ccc2c(c1)nc1cc(NC3CCCCC3)c(=NC3CCCCC3)cc-1n2C1CCCCC1
T/C [7]: 87 % of control | T/C [8]: 91 % of control | T/C [12]: 89 % of control

Brc1ccc2c(NCCCCCCCCNc3c4ccccc4nc4cc(Br)ccc34)c3ccccc3nc2c1
T/C (dose: 0.32 mg/kg/injection, schedule: Q01DX009 (ip), vehicle: other): 100 % of control | T/C (dose: 0.63 mg/kg/injection, schedule: Q01DX009 (ip), vehicle: other): 99 % of control | T/C (dose: 1.25 mg/kg/injection, schedule: Q01DX009 (ip), vehicle: other): 107 % of control | T/C (dose: 2.5 mg/kg/injection, schedule: Q01DX009 (ip), vehicle: other): 109 % of control | T/C (dose: 5.0 mg/kg/injection, schedule: Q01DX009 (ip), vehicle: other): 96 % of control | T/C (dose: 10.0 mg/kg/injection, schedule: Q01DX009 (ip), vehicle: other): 101 % of control

COc1ccc2c(c1)C(c1ccccc1)SC(c1ccccc1)=C2 (configuration not stated)
T/C [5]: 107 % of control | T/C [6]: 100 % of control | T/C (dose: 200.0 mg/kg/injection, schedule: Q01DX009 (ip), vehicle: Klucel (hydroxypropylcellulose) (HPC)): 99 % of control

COC(=O)c1nc2[nH]n(-c3ccccc3)c(=O)c2c(C(=O)OC)c1C(C)C(=O)c1ccccc1 (configuration not stated)
T/C [7]: 100 % of control | T/C [8]: 109 % of control | T/C [12]: 94 % of control

CC(C)(C)n1nc(C2CC2)c(Br)c1NC(=O)c1ccccc1F
T/C (dose: 30.0 mg/kg/injection, schedule: Q01DX005 (ip), vehicle: Klucel (hydroxypropylcellulose) (HPC)): 100 % of control | T/C [13]: 98 % of control | T/C [14]: 104 % of control | T/C [15]: 100 % of control

CCOC1=CC(=O)/C(=C/O[Si](C)(C)C)CC1
T/C [16]: 103 % of control | T/C [17]: 99 % of control

NC(Cc1ccccc1Br)c1nn[nH]n1 (configuration not stated)
T/C (dose: 25.0 mg/kg/injection, schedule: Q01DX009 (ip), vehicle: saline with Tween-80): 97 % of control | T/C [16]: 104 % of control | T/C [17]: 114 % of control

O=C(N/N=C/c1ccco1)C(=O)Nc1ccc(Cl)c([N+](=O)[O-])c1
T/C [4]: 91 % of control | T/C [9]: 89 % of control | T/C [10]: 105 % of control

CC(NC(=O)CNC(=O)CN)C(N)=O (configuration not stated)
T/C [1]: 101 % of control | T/C [2]: 99 % of control | T/C [3]: 101 % of control

O=C(Nc1ccc(C2=NCCN2)cc1)c1cc2ccc(C3=NCCN3)cc2o1
T/C (dose: 100.0 mg/kg/injection, schedule: Q04DX003 (ip), vehicle: suspension in saline): 104 % of control | T/C (dose: 200.0 mg/kg/injection, schedule: Q04DX003 (ip), vehicle: suspension in saline): 119 % of control

CCCN1C(=O)CC(NC(C)=O)C1=O (configuration not stated)
T/C [4]: 107 % of control | T/C [9]: 107 % of control | T/C [10]: 107 % of control

N#Cc1nnc2cc(-c3ccccc3)nn2c1-c1cccs1
T/C [13]: 86 % of control | T/C [14]: 90 % of control | T/C [15]: 87 % of control

CN(C)C1=CC(=S)NC(c2ccccc2)C1 (configuration not stated)
T/C [11]: 103 % of control | T/C (dose: 100.0 mg/kg/injection, schedule: Q01DX005 (ip), vehicle: Klucel (hydroxypropylcellulose) (HPC)): 100 % of control | T/C (dose: 200.0 mg/kg/injection, schedule: Q01DX005 (ip), vehicle: Klucel (hydroxypropylcellulose) (HPC)): 105 % of control

CC(=O)C1=C(N)C(C#N)=C(C)C(C)(O)C1 (configuration not stated)
T/C (dose: 50.0 mg/kg/injection, schedule: Q01DX009 (ip), vehicle: saline + alcohol): 108 % of control | T/C (dose: 100.0 mg/kg/injection, schedule: Q01DX009 (ip), vehicle: saline + alcohol): 90 % of control | T/C (dose: 200.0 mg/kg/injection, schedule: Q01DX009 (ip), vehicle: saline + alcohol): 89 % of control

O=C(O)CNCCCNCC(=O)O
T/C [1]: 94 % of control | T/C [2]: 88 % of control | T/C [3]: 99 % of control

CCOP(=S)(OCC)Oc1ccccc1
T/C (dose: 100.0 mg/kg/injection, schedule: Q04DX002 (ip), vehicle: saline): 104 % of control | T/C (dose: 200.0 mg/kg/injection, schedule: Q04DX002 (ip), vehicle: saline): 113 % of control | T/C (dose: 400.0 mg/kg/injection, schedule: Q04DX002 (ip), vehicle: saline): 115 % of control
